Legend:
Test in all cases: relative viability (nuclei count vs DMSO), 5 days (fraction); higher = more cells survive
[1] = compound: CCC1=CN=CN=C1N2CCN(CC2)CC3=NC4=C(N3)C=C(C=C4)C(F)(F)F + C[C@@H](Oc1cc(-c2cnn(C3CCNCC3)c2)cnc1N)c1c(Cl)ccc(F)c1Cl [Crizotinib] (partner 1 µM)
Outline: (§1)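 Values are medians from duplicate plates. Each reflects relative viability, defined as the nuclei count of treated wells over that of vehicle wells. Lung cancer cell lines in 1536-well plates were pin-tool dosed one day after seeding with one drug alone or with a fixed anchor-drug dose plus five library-drug doses (not always all listed) in √10 steps, then fixed, stained and imaged at 4× after 5 days.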

Mirin + Palbociclib = compound: N=C1NC(=O)/C(=C/c2ccc(O)cc2)S1 [Mirin] + CC(=O)c1c(C)c2cnc(Nc3ccc(N4CCNCC4)cn3)nc2n(C2CCCC2)c1=O [Palbociclib] (partner 0.5 µM)
Outline: as §1

Mirin + OSI-027 = compound: N=C1NC(=O)/C(=C/c2ccc(O)cc2)S1 [Mirin] + COc1cccc2cc(-c3nc([C@H]4CC[C@H](C(=O)O)CC4)n4ncnc(N)c34)[nH]c12 [OSI-027] (partner 0.5 µM)
Outline: as §1

Mirin + Pemetrexed = compound: N=C1NC(=O)/C(=C/c2ccc(O)cc2)S1 [Mirin] + Nc1nc2[nH]cc(CCc3ccc(C(=O)N[C@@H](CCC(=O)O)C(=O)O)cc3)c2c(=O)[nH]1 [Pemetrexed] (partner 0.2 µM)
Outline: as §1

Q: Which relative viability ([1]; first compound 0.04 µM) does the source give for UMC-11 here?
A: 0.572

Q: And the relative viability ([1]; first compound 0.1265 µM)?
A: 0.611

Q: And the relative viability ([1]; first compound 0.4 µM)?
A: 0.621

Q: What about the relative viability ([1]; first compound 1.265 µM) of the same cell line?
A: 0.615

Q: What about the relative viability ([1]; first compound 4 µM) of the same cell line?
A: 0.906

Q: What about the relative viability (Mirin + Palbociclib; first compound 0.25 µM) of the same cell line?
A: 0.33

Q: And the relative viability (Mirin + Palbociclib; first compound 2.5 µM)?
A: 0.317

Q: What about the relative viability (Mirin + Palbociclib; first compound 7.906 µM) of the same cell line?
A: 0.331

Q: What about the relative viability (Mirin + Palbociclib; first compound 25 µM) of the same cell line?
A: 0.309

Q: What about the relative viability (Mirin + OSI-027; first compound 0.25 µM) of the same cell line?
A: 0.477

Q: And the relative viability (Mirin + OSI-027; first compound 0.7906 µM)?
A: 0.483

Q: And the relative viability (Mirin + OSI-027; first compound 2.5 µM)?
A: 0.461

Q: What about the relative viability (Mirin + OSI-027; first compound 7.906 µM) of the same cell line?
A: 0.396

Q: What about the relative viability (Mirin + OSI-027; first compound 25 µM) of the same cell line?
A: 0.293

Q: What about the relative viability (Mirin + Pemetrexed; first compound 0.25 µM) of the same cell line?
A: 0.787

Q: And the relative viability (Mirin + Pemetrexed; first compound 0.7906 µM)?
A: 0.74

Q: What about the relative viability (Mirin + Pemetrexed; first compound 2.5 µM) of the same cell line?
A: 0.92

Q: And the relative viability (Mirin + Pemetrexed; first compound 7.906 µM)?
A: 0.691

Q: And the relative viability (Mirin + Pemetrexed; first compound 25 µM)?
A: 0.568

Reference: the supplement of paper PMC10307832
